Test results: patent US10577362B2, “Substituted 2, 4-diamino-quinoline derivatives for use in the treatment of proliferative diseases” (GENOSCIENCE PHARMA, priority 2016, dated 2020)

How the values were obtained:
[1] = test system: Huh7 (hepatocellular carcinoma) cell line; assay: CellTiter-Glo luminescent cell viability assay, Huh7; type: cell-based, human; conditions: Homo sapiens, Huh-7; for viability at 4 µM: Huh7, compound at 4 μM; for viability at 4 µM / viability at 10 µM: 72 h; for viability at 10 µM: Huh7, compound at 10 μM; for EC50: Huh7 cell line, 72 h incubation, CellTiter-Glo, read-out: EC50, growth inhibition of Huh7
How it was run: (§1)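 In a 72 h viability assay, compound-treated cells were compared against matched H2O or DMSO diluent controls by luminescence, points in at least duplicate.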

[2] = test system: 786-O (renal adenocarcinoma) cell line; assay: CellTiter-Glo luminescent cell viability assay, 786-O; type: cell-based, human; conditions: Homo sapiens, 786-0; for viability at 4 µM / viability at 10 µM: 786-O, 72 h; for viability at 4 µM: compound at 4 μM; for viability at 10 µM: compound at 10 μM; for EC50: 786-O cell line, 72 h incubation, CellTiter-Glo, read-out: EC50, growth inhibition of 786-O
How it was run: (§2)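 Luminescent signal, normalised to diluent-treated cultures, defines % viability; EC50 is the concentration lowering it to 50%. Cells had been exposed to compound for 72 h at 37 °C in medium with 10% FBS, at a constant H2O or DMSO percentage.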

[3] = test system: A375 (malignant melanoma) cell line; assay: CellTiter-Glo luminescent cell viability assay, A375; type: cell-based, human; conditions: Homo sapiens, A-375; for viability at 4 µM: A375, compound at 4 μM; for viability at 4 µM / viability at 10 µM: 72 h; for viability at 10 µM: A375, compound at 10 μM; for EC50: A375 cell line, 72 h incubation, CellTiter-Glo, read-out: EC50, growth inhibition of A375
How it was run: as §2

[4] = test system: HepG2 (hepatocellular carcinoma) cell line; assay: CellTiter-Glo luminescent cell viability assay, HepG2; type: cell-based, human; conditions: Homo sapiens; for viability at 4 µM / viability at 10 µM: HepG2, HepG, 72 h; for viability at 4 µM: compound at 4 μM; for viability at 10 µM: compound at 10 μM; for EC50: HepG2 cell line, 72 h incubation, CellTiter-Glo, read-out: EC50, growth inhibition of HepG2
How it was run: as §1

[5] = test system: HCT-116 (colorectal carcinoma) cell line; assay: CellTiter-Glo luminescent cell viability assay, HCT-116; type: cell-based, human; conditions: Homo sapiens; for viability at 4 µM: HCT-116, compound at 4 μM; for viability at 4 µM / viability at 10 µM: 72 h; for viability at 10 µM: HCT-116, compound at 10 μM; for EC50: HCT-116 cell line, 72 h incubation, CellTiter-Glo, read-out: EC50, growth inhibition of HCT-116
How it was run: as §2

[6] = test system: MOLM-14 (acute myeloid leukemia) cell line; assay: CellTiter-Glo luminescent cell viability assay, MOLM-14; type: cell-based, human; conditions: Homo sapiens; for viability at 4 µM: MOLM-14, compound at 4 μM; for viability at 4 µM / viability at 10 µM: 72 h; for viability at 10 µM: MOLM-14, compound at 10 μM; for EC50: MOLM-14 cell line, 72 h incubation, CellTiter-Glo, read-out: EC50, growth inhibition of MOLM-14
How it was run: as §1

[7] = test system: PANC-1 (prancreatic carcinoma) cell line; assay: CellTiter-Glo luminescent cell viability assay, PANC-1; type: cell-based; conditions: Homo sapiens; for viability at 4 µM: PANC-1, 4 μM; for viability at 4 µM / viability at 10 µM: 72 h, % of signal of diluent-treated cultures; for viability at 10 µM: PANC-1, 10 μM; for EC50: PANC-1 cell line, 72 h incubation, CellTiter-Glo, read-out: EC50 (growth inhibition assay of PANC-1 cell line)
Method: All cell lines were maintained in medium containing 1% penicillin-streptomycin (Dutscher, P06-07100) and 10% Fetal Bovine Serum (Hyclone Dutscher, RZK35922) cultured at 37° C. with 5% CO2. HepG2 (hepatocellular carcinoma), cell line was cultured in Dulbecco's modified Eagle's medium low glucose (Gibco, 21885025), Huh7 (hepatocellular carcinoma), HCT-116 (colorectal carcinoma), PANC-1 (prancreatic carcinoma) and A375 (malignant melanoma) cell lines were cultured in Dulbecco's modified Eagle's medium (Dutscher, L0103). MOLM-14 (acute myeloid leukemia) cell line was maintained in MEM alpha medium (Gibco, 22561-021). 786-0 (renal adenocarcinoma) cell lines were maintained in RPMI 1640 medium (Dutscher, L0498).
Cell viability was measured using the CellTiter-Glo® luminescent cell viability assay as described by the manufacturer (Promega, Ref G7571) using an Infinite F200Pro luminometer (Tecan). Briefly, for adherent cells, cells were plated onto 96-well plates (white with clear bottom) in 90 μL of media per well and were allowed to grow overnight before the assay. For cells growing in suspension, cells were plated onto 96-well plates 1 h before the assay.
Compounds were resuspended in H2O or DMSO and added at different concentrations to each well, and cell cultures were incubated for 72 h. Each diluent (H2O or DMSO) were used as a control, and all compounds were tested in a constant percentage of H2O or DMSO. On the day of the reading, plates are equilibrated 30 min at room temperature before the addition of 100 μL of CellTiter-Glo® and luminescence was measured using an Infinite F200Pro (Tecan). % cell viability were expressed as a percentage of the signal obtained for cell cultures treated with diluent. EC50 values were determined as the dose of compound required to reduce luminescent values to 50% of the signal obtained for cell cultures treated with diluent. The experimental data were analyzed using a computer program, Graphpad Prism v5 (GraphPad Software, Inc. La Jolla, Calif.). All points were at least done in duplicate.

SMILES	viability at 4 µM [1] [%]	viability at 10 µM [1] [%]	viability at 4 µM [2] [%]	viability at 10 µM [2] [%]	viability at 4 µM [3] [%]	viability at 10 µM [3] [%]	viability at 4 µM [4] [%]	viability at 10 µM [4] [%]	viability at 4 µM [5] [%]	viability at 10 µM [5] [%]	viability at 4 µM [6] [%]	viability at 10 µM [6] [%]	viability at 4 µM [7] [%]	viability at 10 µM [7] [%]	EC50 [1] [µM]	EC50 [2] [µM]	EC50 [3] [µM]	EC50 [4] [µM]	EC50 [5] [µM]	EC50 [6] [µM]	also measured
CC(C)(C)OC(=O)NC1CCN(c2c(C#N)c(NCc3ccc(Cl)cc3)nc3ccccc23)CC1 [Compound 182CN, 2-(4-chlorobenzylamino)-3-cyano-4-{4-[(tert-butyloxycarbonyl)amino]piperidin-1-yl}quinoline]	86	76.2	89.9	83.9	94.4	90.2	91.6	89.8	66.9	47.7	86.9	48.7	100	95.3	–	–	–	–	–	–	–
CCN(CC)C1CCN(c2c(C#N)c(NCc3ccc(Cl)cc3)nc3ccccc23)CC1 [Compound 184CN, 2-(4-chlorobenzylamino)-3-cyano-4-[4-(diethylamino)piperidin-1-yl]quinoline]	74.7	0.7	72.6	1.1	53.7	0.8	72.4	0.8	65.7	0.9	95.1	0.7	91.8	46.6	5 to 10	5 to 10	0.5 to 5	5 to 10	5 to 10	5 to 10	EC50 [7]: 5 to 10 µM
N#Cc1c(NCc2ccc(Cl)cc2)nc2ccccc2c1N1CCC(N2CCCC2)CC1 [Compound 200CN, 2-(4-chlorobenzylamino)-3-cyano-4-[4-(pyrrolidin-1-yl)piperidin-1-yl]quinoline]	83.1	0.7	74.8	2.2	65.9	0.4	90.8	0.9	78.1	0.5	92.7	0.4	98.8	60.8	5 to 10	0.5 to 5	0.5 to 5	5 to 10	0.5 to 5	0.5 to 5	EC50 [7]: 5 to 10 µM
CC(C)(C)NC1CCN(c2c(C#N)c(NCc3ccc(F)cc3)nc3ccccc23)CC1 [Compound 240CN, 2-(4-fluorobenzylamino)-3-cyano-4-[4-(tert-butylamino)piperidin-1-yl]quinoline]	80	0.4	77.2	0.7	64.5	0.3	86.7	0.4	55.2	0.3	100	0.5	98.3	30	0.5 to 5	5 to 10	0.5 to 5	0.5 to 5	0.5 to 5	5 to 10	EC50 [7]: 5 to 10 µM
CC(C)(C)NC1CCN(c2c(F)c(NCc3ccc(F)cc3)nc3ccccc23)CC1 [Compound 240F, 2-(4-fluorobenzylamino)-3-fluoro-4-[4-(tert-butylamino)piperidin-1-yl]quinoline]	70.5	2.5	94.7	28.7	73.6	0.2	46.1	0.1	49.6	0.2	83.4	50.8	96.5	59.5	5 to 10	5 to 10	5 to 10	5 to 10	5 to 10	5 to 10	EC50 [7]: 5 to 10 µM
Cc1cccc2c(N3CCC(NC(C)(C)C)CC3)c(C#N)c(NCc3ccc(Cl)cc3)nc12 [Compound 414CN, 2-(4-chlorobenzylamino)-3-cyano-4-[4-(tert-butylamino)piperidin-1-yl]-8-methylquinoline]	79.8	0.5	0.7	0.3	0.3	0.4	9	0.5	0.3	0.3	0.5	0.3	91	0.8	0.5 to 5	0.5 to 5	0.5 to 5	0.5 to 5	0.5 to 5	0.5 to 5	EC50 [7]: 5 to 10 µM
Cc1ccc2c(N3CCC(NC(C)(C)C)CC3)c(C#N)c(NCc3ccc(Cl)cc3)nc2c1 [Compound 416CN, 2-(4-chlorobenzylamino)-3-cyano-4-[4-(tert-butylamino)piperidin-1-yl]-7-methylquinoline]	75.5	0.6	0.4	0.3	0.4	0.4	61.9	0.5	0.3	0.3	37.9	0.4	100	0.7	0.5 to 5	0.5 to 5	0.5 to 5	0.5 to 5	0.5 to 5	0.5 to 5	EC50 [7]: 5 to 10 µM
Cc1ccc2nc(NCc3ccc(Cl)cc3)c(C#N)c(N3CCC(NC(C)(C)C)CC3)c2c1 [Compound 418CN, 2-(4-chlorobenzylamino)-3-cyano-4-[4-(tert-butylamino)piperidin-1-yl]-6-methylquinoline]	50.5	0.3	0.9	0.2	0.3	0.3	5	0.2	0.2	0.2	3.8	0.3	79.8	0.4	0.5 to 5	0.5 to 5	0.5 to 5	0.5 to 5	0.5 to 5	0.5 to 5	EC50 [7]: 5 to 10 µM
